Experimental data published in patent US20160287589A1, “SUBSTITUTED-IMIDAZOPYRIDAZINES” (BAYER PHARMA AKTIENGESELLSCHAFT, priority 2013, published 2016).

How the values were obtained:
MKNK1 [1] = target: T1, MKNK1 (Homo sapiens, UniProt Q9BUB5, T385D); assay: MKNK1 kinase assay (MKNK1 TR-FRET assay); type: biochemical; conditions: 10 μM ATP, 15 min preincubation
T1 construct: GST (N); purchased Carna Biosciences 02-145; host or cells: insect cells (baculovirus expression system)
Source text: MKNK1-inhibitory activity of compounds of the present invention was quantified employing the MKNK1 TR-FRET assay as described in the following paragraphs.
(§1) A recombinant fusion protein of Glutathione-S-Transferase (GST, N-terminally) and human full-lengt MKNK1 (amino acids 1-424 and T344D of accession number BAA 19885.1), expressed in insect cells using baculovirus expression system and purified via glutathione sepharose affinity chromatography, was purchased from Carna Biosciences (product no 02-145) and used as enzyme. As substrate for the kinase reaction the biotinylated peptide biotin-Ahx-IKKRKLTRRKSLKG (C-terminus in amide form) was used which can be purchased e.g. form the company Biosyntan (Berlin-Buch, Germany).
For the assay 50 nL of a 100 fold concentrated solution of the test compound in DMSO was pipetted into a black low volume 384 well microtiter plate (Greiner Bio-One, Frickenhausen, Germany), 2 μL of a solution of MKNK1 in aqueous assay buffer [50 mM HEPES pH 7.5, 5 mM magnesium chloride, 1.0 mM dithiothreitol, 0.005% (v/v) Nonidet-P40 (Sigma)] was added and the mixture was incubated for 15 min at 22° C. to allow pre-binding of the test compounds to the enzyme before the start of the kinase reaction. […] The concentration of MKNK1 was adjusted depending of the activity of the enzyme lot and was chosen appropriate to have the assay in the linear range, typical concentrations were in the range of […]. The reaction was stopped by the addition of 5 μL of a solution of TR-FRET detection reagents (5 nM streptavidine-XL665 [Cisbio Bioassays, Codolet, France] and 1 nM anti-ribosomal protein S6 (pSer236)-antibody from Invitrogen [#44921G] and 1 nM LANCE EU-W1024 labeled ProteinG [Perkin-Elmer, product no. AD0071]) in an aqueous EDTA-solution (100 mM EDTA, 0.1% (w/v) bovine serum albumin in 50 mM HEPES pH 7.5).
(§2) The resulting mixture was incubated for 1 h at 22° C. to allow the formation of complex between the phosphorylated biotinylated peptide and the detection reagents. Subsequently the amount of phosphorylated substrate was evaluated by measurement of the resonance energy transfer from the Eu-chelate to the streptavidine-XL. Therefore, the fluorescence emissions at 620 nm and 665 nm after excitation at 350 nm were measured in a TR-FRET reader, e.g. a Rubystar (BMG Labtechnologies, Offenburg, Germany) or a Viewlux (Perkin-Elmer). The ratio of the emissions at 665 nm and at […] was taken as the measure for the amount of phosphorylated substrate. The data were normalised (enzyme reaction without inhibitor=0% inhibition, all other assay components but no enzyme=100% inhibition).

MKNK1 [2] = target: T1, MKNK1; assay: MKNK1 kinase high ATP assay (TR-FRET-based); type: biochemical; conditions: 2 mM ATP, 15 min preincubation
Description: MKNK1 Kinase High ATP Assay
MKNK1-inhibitory activity at high ATP of compounds of the present invention after their preincubation with MKNK1 was quantified employing the TR-FRET-based MKNK1 high ATP assay as described in the following paragraphs.
as §1, with “human full-length” for “human full-lengt”, “was used,” for “was used”, “e.g. from” for “e.g. form”
For the assay 50 nL of a 100 fold concentrated solution of the test compound in DMSO was pipetted into a black low volume 384 well microtiter plate (Greiner Bio-One, Frickenhausen, Germany), 2 μL of a solution of MKNK1 in aqueous assay buffer [50 mM HEPES pH 7.5, 5 mM magnesium chloride, 1.0 mM dithiothreitol, 0.005% (v/v) Nonidet-P40 (Sigma)] was added and the mixture was incubated for 15 min at 22° C. to allow pre-binding of the test compounds to the enzyme before the start of the kinase reaction. Then the kinase reaction was started by the addition of 3 μL of a solution of adenosine-tri-phosphate (ATP, 3.3 mM=>final conc. in the 5 μL assay volume is 2 mM) and substrate (0.1 μM=>final conc. in the 5 μL assay volume is 0.06 μM) in assay buffer and the resulting mixture was incubated for a reaction time of 30 min at 22° C. The concentration of MKNK1 was adjusted depending of the activity of the enzyme lot and was chosen appropriate to have the assay in the linear range, typical concentrations were in the range of 0.003 μg/mL. The reaction was stopped by the addition of 5 μL of a solution of TR-FRET detection reagents (5 nM streptavidine-XL665 [Cisbio Bioassays, Codolet, France] and 1 nM anti-ribosomal protein S6 (pSer236)-antibody from Invitrogen [#44921G] and 1 nM LANCE EU-W1024 labeled ProteinG [Perkin-Elmer, product no. AD0071]) in an aqueous EDTA-solution (100 mM EDTA, 0.1% (w/v) bovine serum albumin in 50 mM HEPES pH 7.5).
as §2

T1 sequence (Q9BUB5 1-424 isoform Q9BUB5-2 T344D): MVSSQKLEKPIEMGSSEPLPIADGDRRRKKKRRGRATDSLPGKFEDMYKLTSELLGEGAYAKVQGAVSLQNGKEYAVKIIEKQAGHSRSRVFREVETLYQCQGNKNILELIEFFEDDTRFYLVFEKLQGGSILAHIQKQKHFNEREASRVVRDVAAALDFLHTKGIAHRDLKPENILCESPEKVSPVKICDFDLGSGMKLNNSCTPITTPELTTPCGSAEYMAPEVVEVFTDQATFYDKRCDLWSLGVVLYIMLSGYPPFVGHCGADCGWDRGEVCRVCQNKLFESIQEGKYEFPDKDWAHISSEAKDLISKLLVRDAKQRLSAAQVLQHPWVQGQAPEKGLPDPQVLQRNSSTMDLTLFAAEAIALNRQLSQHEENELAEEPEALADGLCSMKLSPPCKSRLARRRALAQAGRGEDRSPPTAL

SMILES | IC50 (MKNK1 [1]; Table 1c) | IC50 (MKNK1 [2]; Table 2c) | IC50 (MKNK1 [1]; Table 1a) | IC50 (MKNK1 [2]; Table 2a) | further results
CN(CCCO)c1nccc2oc(-c3cnc4ccc(OC[C@H]5CCC(=O)N5)nn34)cc12 [III-73, (5R)-5-{[(3-{4-[(3-Hydroxypropyl)(methyl)amino]furo[3,2-c]pyridin-2-yl}imidazo[1,2-b]pyridazin-6-yl)oxy]methyl}pyrrolidin-2-one] | 0.6 nM | 0.8 nM |  |  | 
CC1(C)CN(c2nccc3oc(-c4cnc5ccc(O[C@H]6C[C@H](N)C6)nn45)cc23)CCO1 [III-129, trans-3-({3-[4-(2,2-dimethylmorpholin-4-yl)furo[3,2-c]pyridin-2-yl]imidazo[1,2-b]pyridazin-6-yl}oxy)cyclobutanamine] | 16.8 nM | 14.1 nM |  |  | 
C[C@H](N)COc1ccc2ncc(-c3cc4c(N(C)C5CCN(C)CC5)nccc4o3)n2n1 [III-13, 2-(6-{[(2S)-2-Aminopropyl]oxy}imidazo[1,2-b]pyridazin-3-yl)-N-methyl-N-(1-methylpiperidin-4-yl)furo[3,2-c]pyridin-4-amine] | 13 nM | 62 nM |  |  | 
CN(CCCN1CCCC1)c1nccc2oc(-c3cnc4ccc(O[C@H]5C[C@H](N)C5)nn34)cc12 [III-97, 2-{6-[(trans-3-Aminocyclobutyl)oxy]imidazo[1,2-b]pyridazin-3-yl}-N-methyl-N-[3-(pyrrolidin-1-yl)propyl]furo[3,2-c]pyridin-4-amine] | 5.6 nM | 21 nM |  |  | 
O=C(CC1CC1)N1CCC[C@H]1CCOc1ccc2ncc(-c3cc4ccccc4o3)n2n1 [Example I-51, 1-[(2S)-2-(2-{[3-(1-Benzofuran-2-yl)imidazo[1,2-b]-pyridazin-6-yl]oxy}ethyl)pyrrolidin-1-yl]-2-cyclopropylethanone] |  |  | 2.1 nM | 3.2 nM | 
C[C@H](N)COc1ccc2ncc(-c3cc4c(N5CCOCC5)cccc4o3)n2n1 [II-2, (2S)-1-({3-[4-(Morpholin-4-yl)-1-benzofuran-2-yl]imidazo[1,2-b]pyridazin-6-yl}oxy)propan-2-amine] |  |  |  |  | IC50 (MKNK1 [1]; Table 1b): 16 nM; IC50 (MKNK1 [2]; Table 2b): 36 nM
CC(C)(C)N1CCN(c2nccc3oc(-c4cnc5ccc(O[C@H]6C[C@H](N)C6)nn45)cc23)CC1 [III-99, trans-3-({3-[4-(4-tert-butylpiperazin-1-yl)furo[3,2-c]pyridin-2-yl]imidazo[1,2-b]pyridazin-6-yl}oxy)cyclobutanamine] | 24.4 nM | 45.6 nM |  |  | 
C[C@@H]1CN(c2cccc3oc(-c4cnc5ccc(OC[C@@H](C)N)nn45)cc23)CCO1 [II-69, (2R)-1-[(3-{4-[(2R)-2-methylmorpholin-4-yl]-1-benzofuran-2-yl}imidazo[1,2-b]pyridazin-6-yl)oxy]propan-2-amine] |  |  |  |  | IC50 (MKNK1 [1]; Table 1b): 29.4 nM; IC50 (MKNK1 [2]; Table 2b): 34.8 nM
CC(C)(C)N1CCN(c2nccc3oc(-c4cnc5ccc(OC[C@H]6CCC(=O)N6)nn45)cc23)CC1 [III-63, (5R)-5-[({3-[4-(4-tert-Butylpiperazin-1-yl)furo[3,2-c]pyridin-2-yl]imidazo-[1,2-b]pyridazin-6-yl}oxy)methyl]pyrrolidin-2-one] | 4.3 nM | 12.6 nM |  |  | 
O=C1CCCC(COc2ccc3ncc(-c4cc5ccccc5o4)n3n2)N1 (stereo not shown) [Example I-8, 6-({[3-(1-Benzofuran-2-yl)imidazo[1,2-b]pyridazin-6-yl]oxy}methyl)piperidin-2-one] |  |  | 5.2 nM | 9.3 nM | 
O=C(NCCOc1ccc2ncc(-c3cc4ccccc4o3)n2n1)C1CCC1 [Example I-68, N-(2-{[3-(1-Benzofuran-2-yl)imidazo[1,2-b]-pyridazin-6-yl]oxy}ethyl)cyclobutane-carboxamide] |  |  | 7.8 nM | 20.6 nM | 
C[C@@H]1CNCCN1c1cccc2oc(-c3cnc4ccc(OC[C@@H]5CCC(=O)N5)nn34)cc12 [II-62, (5S)-5-{[(3-{4-[(2R)-2-methylpiperazin-1-yl]-1-benzofuran-2-yl}imidazo[1,2-b]pyridazin-6-yl)oxy]methyl}pyrrolidin-2-one] |  |  |  |  | IC50 (MKNK1 [1]; Table 1b): 5.1 nM
C[C@@H]1CNCCN1c1cccc2oc(-c3cnc4ccc(OCC(F)(F)F)nn34)cc12 [II-64, 3-{4-[(2R)-2-methylpiperazin-1-yl]-1-benzofuran-2-yl}-6-(2,2,2-trifluoroethoxy)im-idazo[1,2-b]pyridazine] |  |  |  |  | IC50 (MKNK1 [1]; Table 1b): 9.3 nM
CC1(C)CN(c2cccc3oc(-c4cnc5ccc(O[C@H]6C[C@H](N)C6)nn45)cc23)CCO1 [II-66, trans-3-({3-[4-(2,2-dimethylmorpholin-4-yl)-1-benzofuran-2-yl]imidazo[1,2-b]pyridazin-6-yl}oxy)cyclobutanamine] |  |  |  |  | IC50 (MKNK1 [1]; Table 1b): 27.3 nM

Second part, led by results:

IC50 (MKNK1 [1]; Table 1c) | IC50 (MKNK1 [2]; Table 2c) | IC50 (MKNK1 [1]; Table 1a) | IC50 (MKNK1 [2]; Table 2a) | SMILES | further results
0.5 nM | 0.3 nM |  |  | CCN(CCOC)c1nccc2oc(-c3cnc4ccc(OC[C@@H]5CNCC(=O)N5)nn34)cc12 [III-113, (6S)-6-{[(3-{4-[Ethyl(2-methoxyethyl)amino]furo[3,2-c]pyridin-2-yl}imidazo[1,2-b]pyridazin-6-yl)oxy]methyl}piperazin-2-one] | 
 |  | 7.1 nM | 13.8 nM | O=C1NCCN1CCOc1ccc2ncc(-c3cc4ccccc4o3)n2n1 [Example I-18, 1-(2-{[3-(1-Benzofuran-2-yl)imidazo[1,2-b]pyridazin-6-yl]oxy}ethyl)-imidazolidin-2-one] | 
20.8 nM | 16.9 nM |  |  | CS(=O)(=O)CCCOc1ccc2ncc(-c3cc4c(N5CCN(c6ccccc6)CC5)nccc4o3)n2n1 [III-56, 6-[3-(Methylsulfonyl)propoxy]-3-[4-(4-phenylpiperazin-1-yl)furo[3,2-c]pyridin-2-yl]imidazo[1,2-b]pyridazine] | 
8.7 nM | 26.7 nM |  |  | C[C@@H]1CN(c2nccc3oc(-c4cnc5ccc(OCCCS(C)(=O)=O)nn45)cc23)C[C@H](C)O1 [III-53, 3-{4-[(2R,6S)-2,6-Dimethylmorpholin-4-yl]furo[3,2-c]pyridin-2-yl}-6-[3-(methyl-sulfonyl)propoxy]imidazo[1,2-b]pyridazine] | 
 |  | 13.7 nM | 36.9 nM | Cc1cccc(C(=O)NCCOc2ccc3ncc(-c4cc5ccccc5o4)n3n2)c1 [Example I-69, N-(2-{[3-(1-Benzofuran-2-yl)imidazo[1,2-b]-pyridazin-6-yl]oxy}ethyl)-3-methylbenzamide] | 
 |  | 7.7 nM | 15.5 nM | COc1cccc2oc(-c3cnc4ccc(OC[C@H]5CN(C(=O)C(F)(F)F)CCO5)nn34)cc12 [Example I-20, 2,2,2-Trifluoro-1-[(2R)-2-({[3-(4-methoxy-1-benzofuran-2-yl)imidazo[1,2-b]-pyridazin-6-yl]oxy}methyl)morpholin-4-yl]ethanone] | 
